Laboratory results taken from patent publication US12083109B2, “Neurokinin antagonists and uses thereof” (California Institute of Technology, priority 2017, dated 2024).
Entries after “also recorded” stand apart in the source; their conditions may differ. Where two headings read alike, the source gives them in different places.

Key:
[1] = molecular target: T1, hM4DREADD in Tac2+ neurons (Homo sapiens, UniProt P08173, A203G/Y113C); test: Tone fear test, CNO silencing of Tac2+ neurons (hM4DREADD); format: in vivo, mouse
T1 construct: host or cells: Tac2+ neurons of Tac2-Cre mice (dBNSTa, DMH or CeA), transduced in vivo with AAV2-EF1a-DIO-hM4D-mCherry
T1 sequence (P08173 1-479 Y113C/A203G): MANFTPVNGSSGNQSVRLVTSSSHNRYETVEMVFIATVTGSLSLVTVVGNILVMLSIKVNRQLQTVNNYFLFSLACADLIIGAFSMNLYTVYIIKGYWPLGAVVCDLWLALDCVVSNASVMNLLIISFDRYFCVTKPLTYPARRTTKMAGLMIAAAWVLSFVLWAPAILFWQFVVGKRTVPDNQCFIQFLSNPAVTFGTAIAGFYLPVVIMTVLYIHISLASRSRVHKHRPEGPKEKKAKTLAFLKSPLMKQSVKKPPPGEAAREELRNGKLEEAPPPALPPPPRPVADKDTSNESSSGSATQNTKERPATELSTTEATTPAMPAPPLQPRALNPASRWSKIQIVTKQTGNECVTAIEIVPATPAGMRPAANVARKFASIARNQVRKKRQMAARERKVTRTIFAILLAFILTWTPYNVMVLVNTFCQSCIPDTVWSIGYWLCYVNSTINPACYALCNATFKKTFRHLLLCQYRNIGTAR
Procedure: The protocol for tone trace fear conditioning was performed as previously described (Cushman et al., 2014; incorporated by reference in its entirety) using fear conditioning boxes previously described in detail (Haubensak et al., 2010; Kunwar et al., 2015; incorporated by reference in their entirety). Briefly, mice were transported in squads of four on a white cart to a novel behavioral testing room containing 4 sound-attenuating fear-conditioning chambers (Med Associates). This “training context” was comprised of flat grid flooring (wired to a shock generator and scrambler for footshock delivery, Med Associates), houselights, and the presence of an internal fan for background noise. Chambers were sprayed with 70% Simple Green solution on the underlying chamber pan to generate a unique contextual scent and chambers were cleaned with 70% EtOH between squads. Trace fear conditioning consisted of a 3 minute baseline period followed by 3 tone-shock trials consisting of a 20 second tone conditional stimulus (CS; 75 dB, 2800 Hz), a 20 second trace interval and a 2 second footshock unconditional stimulus (US; 0.7 mA). The inter-trial interval (ITI) between trials was 60 seconds. Mice remained in the chambers an additional 60 seconds before being transported back to the vivarium. The following day, mice were transported in fresh cardboard boxes to a novel behavioral testing room consisting of 4 distinct fear-conditioning boxes to test for tone fear. […] Freezing behavior during the baseline period as well as during each tone presentation (“during”) and trace interval (“post”) were assessed as previously described (Zelikowsky et al., 2014; incorporated by reference in its entirety) using automated near-infrared video tracking equipment and computer software (VideoFreeze, Med Associates). Shock reactivity (motion, arbitrary units) was measured during the 2 second shock US as well as the 3 seconds immediately following. […]

NK3R = molecular target: T2, NK3R (Homo sapiens, UniProt P29371); settings: cited from earlier work; for safety and tolerability in clinical trials: human, Phase I
T2 construct: host or cells: human trial subjects
T2 sequence (P29371 1-465): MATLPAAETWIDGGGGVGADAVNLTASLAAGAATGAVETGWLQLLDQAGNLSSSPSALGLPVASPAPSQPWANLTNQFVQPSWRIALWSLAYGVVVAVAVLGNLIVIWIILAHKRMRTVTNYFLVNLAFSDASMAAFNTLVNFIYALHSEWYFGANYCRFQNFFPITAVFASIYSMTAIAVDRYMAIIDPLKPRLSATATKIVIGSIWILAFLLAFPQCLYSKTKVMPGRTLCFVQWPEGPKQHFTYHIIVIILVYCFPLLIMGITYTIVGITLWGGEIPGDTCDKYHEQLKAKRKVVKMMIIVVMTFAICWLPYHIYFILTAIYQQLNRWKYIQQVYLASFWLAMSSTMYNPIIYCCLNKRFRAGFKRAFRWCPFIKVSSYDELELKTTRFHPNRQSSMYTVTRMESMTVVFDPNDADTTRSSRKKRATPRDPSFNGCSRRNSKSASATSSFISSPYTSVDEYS

| Compound | acute (during) freezing to conditioned tone ([1]; SIS Tac2-Cre mice, hM4DREADD in CeA, CNO 5 mg/kg i.p.) | persistent (post) freezing to conditioned tone ([1]; SIS Tac2-Cre mice, hM4DREADD in dBNSTa, CNO 5 mg/kg i.p.) | tone fear test freezing in mCherry control virus mice ([1]; SIS mice, AAV2-EF1a-DIO-mCherry control virus in dBNSTa (no hM4DREADD), CNO vs vehicle) | efficacy in schizophrenia, bipolar and panic disorder (NK3R; human clinical trials) | efficacy in schizophrenia and major depressive disorder (NK3R; human trials, Phase II/III) | safety and tolerability in clinical trials (NK3R) | safety and tolerability in clinical trials (NK3R; listed as Osanetant) |
| --- | --- | --- | --- | --- | --- | --- | --- |
| C[N+]1([O-])CCN(C2=Nc3cc(Cl)ccc3Nc3ccccc32)CC1 [CNO, clozapine-N-oxide] | blocked; also recorded: suppressed | blocked; also recorded: selectively attenuated | had no effect; also recorded: did not observe any effects; also recorded: no significant effects | – | – | – | – |
| CC(=O)N(C)C1(c2ccccc2)CCN(CCC[C@]2(c3ccc(Cl)c(Cl)c3)CCCN(C(=O)c3ccccc3)C2)CC1 [osanetant, N-(1-{3-[(3R)-1-benzoyl-3-(3,4-dichlorophenyl)piperidin-3-yl]propyl}-4-phenylpiperidin-4-yl)-N-methylacetamide] | – | – | – | lack of efficacy | lack of efficacy | safe and well-tolerated | well tolerated; also recorded: exhibited safety |
